Measurements: patent US6326465A, “Immunomodulatory polypeptides derived from the invariant chain of MHC class II” (The Johns Hopkins University, priority 1998, dated 2001)

What was measured:
[1] = system: Lewis syngeneic PHA blasts; test: Lysis of PHA lymphoblast target cells by syngeneic GVHD effector T cells; format: cell-based, rat; settings: target cells loaded with 10 uM; versus diluent treated target cells
Method: FIG. 1. Graph showing comparison of percent specific lysis conferred by truncated variants of CLIP. Lewis syngeneic PHA blasts were force-loaded with the truncated variants of CLIP (10 μmol/L, 1 hr, 4° C.) prior to assay. Effector T cells (nylon wool nonadherent) were derived from animals with syngeneic GVHD that were clonally expanded in thymectomized secondary Lewis recipients.
Truncated peptides from the rat MHC Class II invariant chain V0 : (sequence aa 82-103 […] (SEQ ID NO:1)), V1: aa 90-104 (SEQ ID NO:2), V2: 86-100 (SEQ ID NO:3), V3: 90-100(SEQ ID NO:4) were synthesized by Quality Controlled Biochemicals Co. (Hopkinton, Ma.) and purified by HPLC.^15,23 The peptides (>92% purity) were dissolved in RPMI 1640 prior to use. Force loading of CLIP was accomplished by incubating the cells in 10 μM of the peptide for 1 hr. at 4° C. […] Antibody was prepared to the CLIP peptide by Quality Controlled Biochemicals Co. The peptides were conjugated to keyhole limpet hemocyanin (KLH). Rabbits were immunized with the peptide-KLH conjugate. The antibody was affinity purified using peptide conjugated sepharose matrix columns.
We first evaluated whether CLIP in rats is recognized by the autoreactive T cells associated with CsA-induced syngeneic GVHD by comparing the lysis of target cells after various pretreatment conditions.
Target cells were loaded with the CLIP variants (10 uM) and evaluated for […]

target cells = format: cell-based, rat
CRL 1662 myeloma cells = test: Antitumor activity after adoptive transfer of syngeneic GVHD effector T cells; format: in vivo, rat; settings: with syngeneic GVHD effector cells; […]10^4 CRL 1662 cells; cytokines for ten days
Method: Nylon wool nonadherent spleen cells (50×10^6) from Lou M animals with syngeneic GVHD were adoptively transferred into secondary Lou M recipients (irradiated, bone marrow reconstituted) challenged with 2.5×10^4 CRL 1662 myeloma cells. […] Survival was assessed and log tumor cell kill was estimated from dose response studies (see Table 6).

tumor cells = test: Cytokine modulation of CsA-induced SGVHD in the rat model; format: in vivo; settings: for cure of animals: animals given 5×10^3 tumor cells; for enhancement of the antitumor effect of SGVHD: rat model

Substance | cure of animals (tumor cells) | enhancement of the antitumor effect of SGVHD (tumor cells) | further results
KPCSP(R) |  |  | Enhancement of Target Cell Recognition [1]: +++ (enhancement representing at least a >25% increase in specific killing)
staphylococcal enterotoxin β [SEB] |  |  | ability of effector T lymphocytes to recognize and lyse the target cells (target cells): completely inhibited; preventing recognition and lysis (target cells): ineffective
γ-interferon: cytokine, 50,000 U/d | about half | 1-2 logs | Estimated Log Tumor Cell Kill (CRL 1662 myeloma cells): 2.5-3.0
interferon-α | about half | 1-2 logs | 
